Assay results as given in US11787816B2, “Chlorin compound, and preparation and use thereof” (Southwest Jiaotong University, priority 2021, dated 2023).

Legend:
[1] = tested on: human hepatocellular carcinoma huh-7 cells; experiment: Photosensitizer-mediated PDT, in vitro proliferation (MTT), huh-7; assay type: cell-based
Description: (§1) Several kinds of tumor cells (human cervical cancer Hela cells, human hepatocellular carcinoma huh-7 cells and murine mammary carcinoma 4T1 cells) cultured in vitro from a variety of tissues were taken as cell models, so as to investigate the photodynamic effects mediated by different doses of CEFN, CEFO, Ce6 and HPPH on the three different tumor cells (n=3). The specific experimental procedures were carried out as follows.
(§2) Cells in the logarithmic growth phase were harvested and seeded in a 24-well plate. After growing to a confluence of 70-80%, the cells were randomly divided into a control group (free of drug and light irradiation), a drug group and a photodynamic group. The CEFN, CEFO, Ce6 and HPPH were added respectively in dark, and for each drug, four final concentrations 1, 2, 5, and 10 μg/mL were set with 3 replicates for each group. After the co-incubation, the groups were treated individually. Regarding the photodynamic group, the light irradiation was performed at a wavelength of 660 nm and three different light intensities, i.e., 2, 4 and 8 J/cm^2. After that, each group was digested, and were inoculated into a 96-well plate at 100 μL per well with 4 replicates for each treatment. 24 hours later, the 96-well plate was subjected to MTT assay as follows. Each well was added with 20 μL of MTT (3-4,5-dimethylthiazol-2,5-diphenyltetrazolium bromide) solution in the dark and incubated for 4 hours. The supernatant was discarded, and the residue was dissolved with 150 μL of dimethyl sulfoxide for 15 min. After that, the 96-well plate was measured by a microplate reader for the absorbance (OD value). The relative cell viability was calculated as follows: relative cell viability=OD value of experimental group/OD value of control group*100%.

[2] = tested on: human cervical cancer Hela cells; experiment: Photosensitizer-mediated PDT, in vitro proliferation (MTT), Hela; assay type: cell-based; conditions: Hela
Description: as §1, §2

[3] = tested on: murine mammary carcinoma 4T1 cells; experiment: Photosensitizer-mediated PDT, in vitro proliferation (MTT), 4T1; assay type: cell-based
Description: as §1, §2
In this experiment, photodynamic effect mediated by the compounds (except CEFO and CEFN) in different Examples of this disclosure on the murine mammary carcinoma 4T1 cells was investigated. The experimental procedures are carried out as follows. Cells in the logarithmic growth phase were harvested and seeded in a 24-well plate. After growing to a confluence of 70-80%, the cells were randomly divided into multiple photodynamic groups and multiple no-light control groups. The compounds (as shown in Table 8a) with a final concentration of 10 μg/mL were added to each group respectively in dark with 3 replicates for each group, so as to co-incubate the cells with the drug. Regarding the multiple photodynamic groups, the light irradiation was performed at a wavelength of 660 nm and the light intensity of 8 J/cm^2. After that, each group was digested, and were inoculated into a 96-well plate at 100 μL per well with 4 replicates for light treatment and no light treatment. 24 hours later, the 96-well plate was measured by MTT assay as follows. Each well was added with 20 μL of MTT (3-4,5-dimethylthiazol-2,5-diphenyltetrazolium bromide) solution in the dark and incubated for 4 hours. The supernatant was discarded, and the residue was dissolved with 150 μL of dimethyl sulfoxide for 15 min. After that, the 96-well plate was measured by a microplate reader for the absorbance (OD value). The relative cell viability of the murine mammary carcinoma 4T1 cells was calculated as follows according to the measured absorbance (OD value) in each group: relative cell viability=OD value of experimental group/OD value of control group*100%.

[4] = tested on: murine mammary carcinoma 4T1 cells; experiment: Antitumor activity as photosensitizers on tumor-bearing mice (one PDT treatment); assay type: in vivo; conditions: for Inhibitory rate (average ± SD, %) / Tumor weight (average ± SD, g): 660 nm, 75 Joule/cm^2 6 h after dosing, 7 days after PDT; for Body weight At the begining / Body weight At the end: one PDT treatment, mice, in g (unit assumed)
Description: (§3) The murine mammary carcinoma cells (4T1 line) were subjected to adherent culture. After growing to a confluence of 70%-80%, the cells in the culture flask were routinely digested, centrifuged and counted, and then resuspended with 0.85% normal saline to a density of 1×10^7 cells/mL. The cell suspension was injected into the left lateral middle axillary subcutaneous part of […] Bal b/c healthy mice (female, aged 6-8 weeks) at 0.1 mL/mouse. When the tumor diameter, which was observed every other day, reached 0.6-0.8 cm, the mice with well-growing tumors and no ulcers on the epidermis were selected for grouped treatment.
(1) Mice with similar body weight and uniform tumor size are selected and randomly divided into 7 groups with 6 mice for each group. After inoculation for 48 h, the mice were subjected to drug administration separately from the tail vein by group.
6 h after the drug administration, the mice were fixed to expose the tumor growth site. Light irradiation was performed for 8 min, using PDT-660 photodynamic therapy equipment at a laser wavelength of 660 nm and a light dose of 75 Joule/cm^2. Then both of the mice growth and tumor growth are observed continuously. 7 days after photodynamic therapy, the animals were sacrificed. The tumor was stripped and weighed, and the body weight was recorded.

[5] = background statement; cited from earlier work
[6] = tested on: murine mammary carcinoma 4T1 cells; experiment: Antitumor activity as photosensitizers on tumor-bearing mice (two PDT treatments); assay type: in vivo
Description: as §3
(2) Mice with similar body weight and uniform tumor size are selected and randomly divided into 4 groups with 6 mice for each group. After inoculation of 4T1 cells and the tumor volume grows to 50˜80 mm^3, the mice were subjected to a first drug administration from the tail vein by group.
6 h after the drug administration, the mice were fixed to expose the tumor growth site. As a first PDT treatment, light irradiation was performed for 8 min, using PDT-660 photodynamic therapy equipment at the laser wavelength of 660 nm and the light dose of 150 Joule/cm^2. One week later, the second PDT treatment (the dosage and lighting conditions were the same as those of the first PDT treatment) was performed. The mice were sacrificed 14 days after the treatment. The tumor was removed, weighed and recorded.

[7] = 0.25 mg/kg tail vein, two PDT treatments one week apart, 660 nm, 150 Joule/cm^2, 14 days after treatment
[8] = 0.25 mg/kg, two PDT treatments, mice, in g (unit assumed)

SMILES: CCCCCCOC(C)c1c(C)c2cc3nc(c4c5[nH]c(cc6nc(cc1[nH]2)C(C)=C6CC)c(C)c5C(=O)C4)[C@@H](CCC(=O)O)[C@@H]3C (stereo partly shown) [HPPH, 2-(1-hexyloxyethyl)-2-devinyl pyropheophorbide-a, reference compound]
- cell viability (%) ([1]; 1 μg/mL, 660 nm, 8 J/cm^2): 68 ± 3%
- cell viability (%) ([1]; 1 μg/mL, no light): 102 ± 4%
- cell viability (%) ([1]; 2 μg/mL, 660 nm, 8 J/cm^2): 37 ± 3%
- cell viability (%) ([1]; 2 μg/mL, no light): 98 ± 2%
- cell viability (%) ([1]; 5 μg/mL, 660 nm, 8 J/cm^2): 26 ± 2%
- cell viability (%) ([1]; 5 μg/mL, no light): 97 ± 1%
- cell viability (%) ([1]; 10 μg/mL, 660 nm, 8 J/cm^2): 12 ± 2%
- cell viability (%) ([1]; 10 μg/mL, no light): 101 ± 4%
- cell viability (%) ([2]; 1 μg/mL, 660 nm, 8 J/cm^2): 65 ± 4%
- cell viability (%) ([2]; 1 μg/mL, no light): 100 ± 3%
- cell viability (%) ([2]; 2 μg/mL, 660 nm, 8 J/cm^2): 46 ± 1%
- cell viability (%) ([2]; 2 μg/mL, no light): 100 ± 2%
- cell viability (%) ([2]; 5 μg/mL, 660 nm, 8 J/cm^2): 25 ± 2%
- cell viability (%) ([2]; 5 μg/mL, no light): 102 ± 3%
- cell viability (%) ([2]; 10 μg/mL, 660 nm, 8 J/cm^2): 12 ± 4%
- cell viability (%) ([2]; 10 μg/mL, no light): 96 ± 4%
- cell viability (%) ([3]; 1 μg/mL, 660 nm, 8 J/cm^2): 83 ± 3%
- cell viability (%) ([3]; 1 μg/mL, no light): 107 ± 4%
- cell viability (%) ([3]; 2 μg/mL, 660 nm, 8 J/cm^2): 53 ± 2%
- cell viability (%) ([3]; 2 μg/mL, no light): 103 ± 2%
- cell viability (%) ([3]; 5 μg/mL, 660 nm, 8 J/cm^2): 33 ± 2%
- cell viability (%) ([3]; 5 μg/mL, no light): 98 ± 1%
- cell viability (%) ([3]; 10 μg/mL, 660 nm, 8 J/cm^2): 11 ± 2%
- cell viability (%) ([3]; 10 μg/mL, no light): 99 ± 44%
- Inhibitory rate (average ± SD, %) ([4]; 0.2 mg/kg tail vein): 72.2 ± 3.5%
- Tumor weight (average ± SD, g) ([4]; 0.2 mg/kg tail vein): 0.045 ± 0.006 g
- Body weight At the begining ([4]; 0.2 mg/kg): 20.5 ± 0.4
- Body weight At the end ([4]; 0.2 mg/kg): 21.6 ± 0.4
- Inhibitory rate (average ± SD, %) ([4]; 0.4 mg/kg tail vein): 89.5 ± 2.5%
- Tumor weight (average ± SD, g) ([4]; 0.4 mg/kg tail vein): 0.017 ± 0.004 g
- Body weight At the begining ([4]; 0.4 mg/kg): 20.7 ± 0.3
- Body weight At the end ([4]; 0.4 mg/kg): 21.8 ± 0.2
- water solubility [5]: water-insoluble
- Inhibitory rate (average ± SD, %) [6, 7]: 90.7 ± 2.1%
- Tumor weight (average ± SD, g) [6, 7]: 0.088 ± 0.020 g
- Body weight At the beginning [6, 8]: 20.5 ± 0.4
- Body weight At the end [6, 8]: 22.5 ± 0.2
